Experimental data as given in patent US8546588B2, “Substituted hydroxamic acids and uses thereof” (Millennium Pharmaceuticals, Inc., priority 2010, dated 2013).
pIC50: −log10 of the molar value.

Molecular target: T1, purified human HDAC6 (Homo sapiens, UniProt Q9UBN7)
T1 construct: purchased BPS Bioscience 5006
T1 sequence (Q9UBN7 1-1215): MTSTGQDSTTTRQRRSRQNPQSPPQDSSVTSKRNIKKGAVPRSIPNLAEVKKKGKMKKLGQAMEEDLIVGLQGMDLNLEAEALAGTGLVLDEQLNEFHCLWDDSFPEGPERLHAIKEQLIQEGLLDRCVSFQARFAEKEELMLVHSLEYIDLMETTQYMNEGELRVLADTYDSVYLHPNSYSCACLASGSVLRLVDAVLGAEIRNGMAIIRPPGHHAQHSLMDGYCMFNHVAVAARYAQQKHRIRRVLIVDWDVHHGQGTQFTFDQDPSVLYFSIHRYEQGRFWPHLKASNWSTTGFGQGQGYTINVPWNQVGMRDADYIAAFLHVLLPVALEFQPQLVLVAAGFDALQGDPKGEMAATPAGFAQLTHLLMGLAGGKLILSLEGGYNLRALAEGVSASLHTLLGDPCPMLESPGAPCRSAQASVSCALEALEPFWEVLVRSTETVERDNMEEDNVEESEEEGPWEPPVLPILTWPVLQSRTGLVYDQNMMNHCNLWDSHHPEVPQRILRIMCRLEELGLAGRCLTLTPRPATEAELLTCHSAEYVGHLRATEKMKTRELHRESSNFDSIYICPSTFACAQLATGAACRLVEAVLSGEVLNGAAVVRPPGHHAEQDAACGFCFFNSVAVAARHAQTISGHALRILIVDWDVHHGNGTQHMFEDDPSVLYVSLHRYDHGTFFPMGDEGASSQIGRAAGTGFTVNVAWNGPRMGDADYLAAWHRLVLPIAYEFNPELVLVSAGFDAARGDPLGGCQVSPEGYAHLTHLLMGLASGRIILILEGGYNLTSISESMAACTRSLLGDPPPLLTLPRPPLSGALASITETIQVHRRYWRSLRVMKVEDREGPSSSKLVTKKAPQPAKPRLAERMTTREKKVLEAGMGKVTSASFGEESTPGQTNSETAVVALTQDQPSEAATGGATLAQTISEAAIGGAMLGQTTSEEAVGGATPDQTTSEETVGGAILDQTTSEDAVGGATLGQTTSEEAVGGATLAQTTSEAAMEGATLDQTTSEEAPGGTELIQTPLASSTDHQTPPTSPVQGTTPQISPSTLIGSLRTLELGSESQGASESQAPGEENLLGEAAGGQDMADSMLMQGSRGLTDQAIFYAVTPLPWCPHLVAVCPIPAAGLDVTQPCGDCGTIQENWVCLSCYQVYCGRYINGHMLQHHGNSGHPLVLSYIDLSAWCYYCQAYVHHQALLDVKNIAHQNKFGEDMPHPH
Assay: HDAC6 Enzyme Assay
Format: biochemical
Details: substrate Ac-Arg-Gly-Lys(Ac)-AMC peptide, 1 hour at 30° C.
Protocol: To measure the inhibition of HDAC6 activity, purified human HDAC6 (BPS Bioscience; Cat. No. 5006) is incubated with substrate Ac-Arg-Gly-Lys(Ac)-AMC peptide (Bachem Biosciences; Cat. No. I-1925) for 1 hour at 30° C. in the presence of test compounds or vehicle DMSO control. The reaction is stopped with the HDAC inhibitor trichostatin A (Sigma; Cat. No. T8552) and the amount of Arg-Gly-Lys-AMC generated is quantitated by digestion with trypsin (Sigma; Cat. No. T1426) and subsequent measurement of the amount of AMC released using a fluorescent plate reader (Pherastar; BMG Technologies) set at Ex 340 nm and Em 460 nm. Concentration response curves are generated by calculating the fluorescence increase in test compound-treated samples relative to DMSO-treated controls, and enzyme inhibition (IC50) values are determined from those curves.

pIC50	SMILES
6.30 to 7.00	Cc1ccccc1S(=O)(=O)NC(C)c1ccc(C(=O)NO)s1 (stereo not shown) [Compound I-35, N-hydroxy-5-(1-{[(2-methylphenyl)sulfonyl]amino}ethyl)thiophene-2-carboxamide]
> 7.00	CC(NC(=O)Nc1ccc(C(C)(C)C)cc1)c1ccc(C(=O)NO)s1 (stereo not shown) [Compound I-36, 5-[1-({[(4-tert-butylphenyl)amino]carbonyl}amino)ethyl]-N-hydroxythiophene-2-carboxamide]
> 7.00	CC(NC(=O)Nc1ccc(OC(F)F)cc1)c1ccc(C(=O)NO)s1 (stereo not shown) [Compound I-37, 5-{1-[({[4-(difluoromethoxy)phenyl]amino}carbonyl)amino]ethyl}-N-hydroxythiophene-2-carboxamide]
> 7.00	Cc1ccc(NC(=O)NC(C)c2ccc(C(=O)NO)s2)cc1C (stereo not shown) [Compound I-38, 5-[1-({[(3,4-dimethylphenyl)amino]carbonyl}amino)ethyl]-N-hydroxythiophene-2-carboxamide]
> 7.00	C[C@@H](NC(=O)c1cc2ccccc2o1)c1ccc(C(=O)NO)s1 [Compound I-39, N-((1R)-1-{5-[(hydroxyamino)carbonyl]-2-thienyl}ethyl)-1-benzofuran-2-carboxamide]
> 7.00	Cc1ccccc1NC(=O)NC(C)c1ccc(C(=O)NO)s1 (stereo not shown) [Compound I-40, N-hydroxy-5-[1-({[(2-methylphenyl)amino]carbonyl}amino)ethyl]thiophene-2-carboxamide]
6.30 to 7.00	Cc1noc(-c2ccccc2)c1NC(=O)NC(C)c1ccc(C(=O)NO)s1 (stereo not shown) [Compound I-41, N-hydroxy-5-[1-({[(3-methyl-5-phenylisoxazol-4-yl)amino]carbonyl}amino)ethyl]thiophene-2-carboxamide]
> 7.00	Cc1ccccc1CNC(=O)NC(C)c1ccc(C(=O)NO)s1 (stereo not shown) [Compound I-42, N-hydroxy-5-[1-({[(2-methylbenzyl)amino]carbonyl}amino)ethyl]thiophene-2-carboxamide]
< 6.30	C[C@@H](NC(=O)C1(C)CCCCC1)c1ccc(C(=O)NO)s1 [Compound I-43, N-hydroxy-5-((1R)-1-{[(1-methylcyclohexyl)carbonyl]amino}ethyl)thiophene-2-carboxamide]
> 7.00	CC(NC(=O)Nc1ccccc1Oc1ccccc1)c1ccc(C(=O)NO)s1 (stereo not shown) [Compound I-44, N-hydroxy-5-[1-({[(2-phenoxyphenyl)amino]carbonyl}amino)ethyl]thiophene-2-carboxamide]
> 7.00	CC(NC(=O)Nc1ccc(C(F)(F)F)cc1)c1ccc(C(=O)NO)s1 (stereo not shown) [Compound I-45, N-hydroxy-5-{1-[({[4-(trifluoromethyl)phenyl]amino}carbonyl)amino]ethyl}thiophene-2-carboxamide]
> 7.00	C[C@@H](NC(=O)c1ccc(-c2ccccc2)cc1)c1ccc(C(=O)NO)s1 [Compound I-46, 5-{(1R)-1-[(biphenyl-4-ylcarbonyl)amino]ethyl}-N-hydroxythiophene-2-carboxamide]
6.30 to 7.00	CC(NS(=O)(=O)c1ccccc1F)c1ccc(C(=O)NO)s1 (stereo not shown) [Compound I-47, 5-(1-{[(2-fluorophenyl)sulfonyl]amino}ethyl)-N-hydroxythiophene-2-carboxamide]
6.30 to 7.00	CC(NS(=O)(=O)c1ccccc1)c1ccc(C(=O)NO)s1 (stereo not shown) [Compound I-48, N-hydroxy-5-{1-[(phenylsulfonyl)amino]ethyl}thiophene-2-carboxamide]
> 7.00	CC(NC(=O)c1ccc(OCc2ccccc2)cc1)c1ncc(C(=O)NO)s1 (stereo not shown) [Compound I-49, 2-(1-{[4-(benzyloxy)benzoyl]amino}ethyl)-N-hydroxy-1,3-thiazole-5-carboxamide]
> 7.00	CC(NC(=O)c1cc2cc(Cl)ccc2o1)c1ncc(C(=O)NO)s1 (stereo not shown) [Compound I-50, 2-(1-{[(5-chloro-1-benzofuran-2-yl)carbonyl]amino}ethyl)-N-hydroxy-1,3-thiazole-5-carboxamide]

pIC50	SMILES
> 7.00	CC(NC(=O)c1cc2ccccc2n1C)c1ncc(C(=O)NO)s1 (stereo not shown) [Compound I-51, N-(1-{5-[(hydroxyamino)carbonyl]-1,3-thiazol-2-yl}ethyl)-1-methyl-1H-indole-2-carboxamide]
6.30 to 7.00	CC(NC(=O)c1cccn1C)c1ncc(C(=O)NO)s1 (stereo not shown) [Compound I-52, N-hydroxy-2-(1-{[(1-methyl-1H-pyrrol-2-yl)carbonyl]amino}ethyl)-1,3-thiazole-5-carboxamide]
< 6.30	CC(NC(=O)C(C)(C)C)c1ncc(C(=O)NO)s1 (stereo not shown) [Compound I-53, 2-{1-[(2,2-dimethylpropanoyl)amino]ethyl}-N-hydroxy-1,3-thiazole-5-carboxamide]
> 7.00	CC(NC(=O)c1cc2ccccc2s1)c1ncc(C(=O)NO)s1 (stereo not shown) [Compound I-54, 2-{1-[(1-benzothien-2-ylcarbonyl)amino]ethyl}-N-hydroxy-1,3-thiazole-5-carboxamide]
< 6.30	CC(NC(=O)C1(c2ccc(Cl)cc2)CCC1)c1ncc(C(=O)NO)s1 (stereo not shown) [Compound I-55, 2-[1-({[1-(4-chlorophenyl)cyclobutyl]carbonyl}amino)ethyl]-N-hydroxy-1,3-thiazole-5-carboxamide]
< 6.30	Cc1nc(-c2ccccn2)sc1C(=O)N[C@H](C)c1cc(C(=O)NO)cn1C [Compound I-156, N-((1R)-1-{4-[(hydroxyamino)carbonyl]-1-methyl-1H-pyrrol-2-yl}ethyl)-4-methyl-2-pyridin-2-yl-1,3-thiazole-5-carboxamide]
< 6.30	C[C@@H](NC(=O)C1(C)CCCCC1)c1cc(C(=O)NO)on1 [Compound I-157, N-hydroxy-3-((1R)-1-{[(1-methylcyclohexyl)carbonyl]amino}ethyl)isoxazole-5-carboxamide]
< 6.30	C[C@@H](NC(=O)c1ccc(-c2ccccc2)cc1)c1cc(C(=O)NO)on1 [Compound I-158, 3-{(1R)-1-[(biphenyl-4-ylcarbonyl)amino]ethyl}-N-hydroxyisoxazole-5-carboxamide]
> 7.00	C[C@H](NC(=O)c1cc2ccccc2o1)c1ncc(C(=O)NO)s1 [Compound I-159, 2-{(1S)-1-[(1-benzofuran-2-ylcarbonyl)amino]ethyl}-N-hydroxy-1,3-thiazole-5-carboxamide]
6.30 to 7.00	C[C@H](NC(=O)c1cccn1C)c1ncc(C(=O)NO)s1 [Compound I-160, N-hydroxy-2-((1S)-1-{[(1-methyl-1H-pyrrol-2-yl)carbonyl]amino}ethyl)-1,3-thiazole-5-carboxamide]
> 7.00	C[C@H](NC(=O)c1ccc(-c2ccccc2)cc1)c1ncc(C(=O)NO)s1 [Compound I-161, 2-{(1S)-1-[(biphenyl-4-ylcarbonyl)amino]ethyl}-N-hydroxy-1,3-thiazole-5-carboxamide]
< 6.30	C[C@@H](NC(=O)C1(C)CCCCC1)c1ncc(C(=O)NO)s1 [Compound I-162, N-hydroxy-2-((1R)-1-{[(1-methylcyclohexyl)carbonyl]amino}ethyl)-1,3-thiazole-5-carboxamide]
< 6.30	Cc1nc(-c2ccccn2)sc1C(=O)N[C@H](C)c1cc(C(=O)NO)on1 [Compound I-163, N-hydroxy-3-((1R)-1-{[(4-methyl-2-pyridin-2-yl-1,3-thiazol-5-yl)carbonyl]amino}ethyl)isoxazole-5-carboxamide]
< 6.30	COc1ccc(C(=O)N[C@H](C)c2cc(C(=O)NO)on2)cc1 [Compound I-164, N-hydroxy-3-{(1R)-1-[(4-methoxybenzoyl)amino]ethyl}isoxazole-5-carboxamide]
> 7.00	C[C@@H](NC(=O)c1cc2ccccc2o1)c1ncc(C(=O)NO)s1 [Compound I-165, 2-{(1R)-1-[(1-benzofuran-2-ylcarbonyl)amino]ethyl}-N-hydroxy-1,3-thiazole-5-carboxamide]
